Experimental data as given in US20070093455A1, “10-substituted tetracyclines and methods of use thereof” (priority 2005, published 2007).
Values after ≈ are worked out from the molar mass of the structure shown.

Key:
[1] = tested on: Mouse 3T3 fibroblast cells; test: Phototoxicity assay (neutral red); type: cell-based; conditions: 3T3 cells
Protocol: Mouse 3T3 fibroblast cells were harvested and plated at a concentration of 1×10^5 cells/mL. Drug dilutions were made in HBSS and added to the plates. Duplicate plates were then incubated in the dark (for controls), or under UV light (meter reading of 1.6-1.8 mW/cm^2) for 50 minutes. Cells were then washed with HBSS, fresh medium was added, and plates were then incubated overnight. The following day, neutral red was added as an indicator of cell viability and plates were incubated for an additional 3 hours. Cells were then washed with HBSS and a solution of 50% EtOH, 10% glacial acetic acid is added. After a 20 minute incubation period, plates absorbance at 535 nm were read using a Wallac Victor 5 spectrophotometer. The phototoxicity in light-treated and control cultures was then compared.

E. coli (ATCC 25922) = test: In vitro MIC assay, E. coli (ATCC 25922); type: cell-based; conditions: Escherichia coli, ATCC25922; broth microdilution, 35° C., 18-24 hours
[2] = tested on: carrageenan induced paw edema; test: Rat model of carrageenan induced paw edema; type: in vivo; conditions: 3 hours after carrageenan injection
Protocol: Carrageenan-induced paw edema represents a commonly used experimental model to assess the anti-inflammatory properties of agents. In this example, male Sprague-Dawley rats (Charles River, Mass.) weighing 175-250 grams were used. Test compounds were administered intraperitoneally 5 minutes or orally 15 minutes before a subplantar injection of carrageenan (5 mg/1 ml) in the rat right hind paw. The paw volume (ml) was monitored with a plethysmometer (Water Plethysmometer) at time of carrageenan injection (baseline) and 3 hours after carrageenan injection. […] Both results were statistically significant with a p<0.1 level by Kruskal-Wallis One Way ANOVA, ChiSquare. There were approximately four rats per group.

S. aureus RN450 = test: In vitro MIC assay, S. aureus RN450; type: cell-based; conditions: Staphylococcus aureus, broth microdilution, 35° C., 18-24 hours
P. aeruginosa K1033 = test: In vitro MIC assay, P. aeruginosa K1033; type: cell-based; conditions: Pseudomonas aeruginosa, broth microdilution, 35° C., 18-24 hours
COS-1 or CHO cell = test: Mammalian cell cytotoxicity assay (Resazurin; Alamar Blue); type: cell-based; conditions: COS-1 or CHO cells, 24 hour incubation
Protocol: To predict the in vivo risks associated with the compounds of the invention, a soluble, non-toxic redox dye (“Resazurin”; Alamar Blue) was used to assess a compound's effect on cellular metabolism. COS-1 or CHO cell suspensions were prepared, seeded into 96-well black-walled microtiter plates, and incubated overnight at 37° C., in 5% CO2 and approximately 95% humidity. On the next day, serial dilutions of test drug were prepared and transferred to cell plates. Following a 24 hour incubation period, the media/drug was aspirated, and 50 μL of resazurin was added. After a 2 hour incubation, fluorescence measurements were taken (excitation […], emission 590 nm) and toxic effects in treated versus control cells were compared based on the degree of fluorescence in each well.

[3] = tested on: H. influenza (ATCC 49247); test: In vitro MIC assay, H. influenza (ATCC 49247); type: cell-based; conditions: read-out: MIC H. influenza (ATCC 49247)
E. coli translation = test: In vitro translation assay for inhibition of bacterial protein synthesis (E. coli S30 Extract System, luciferase); type: biochemical; conditions: 37° C., 1 hour, luciferase luminescence
Protocol: As a further measure of antibacterial activity, an E. coli S30 Extract System was used to quantitate inhibition of E. coli translation by tetracycline derivatives. This system contained all required components for translation, including a nucleic acid template which, when translated, produces functional luciferase. The reactions were set up with E. coli S30 extract, amino acids, DNA template and selected tetracycline compounds at concentrations of 100, 50, 25, 10, 5, and 1 μg/ml. The reactions were incubated at 37° C. for 1 hour and analyzed by adding the reaction mix to Steady-Glo Luciferase Assay substrate (Promega, Madison Wis.). Luminescence was measured with the Wallac Victor5 plate reader and inhibition is calculated by comparing luciferase activity in experimental reactions versus controls.

P. acnes (ATCC 11827) = test: In vitro MIC assay, P. acnes (ATCC 11827); type: cell-based; conditions: Cutibacterium acnes, ATCC11827; Brucella agar with laked sheep blood, 48 hours anaerobic, 35° C.
E. coli MG 1655 DWAK = test: In vitro MIC assay, E. coli MG 1655 DWAK; type: cell-based; conditions: Escherichia coli, MG1655DWAK; broth microdilution, 35° C., 18-24 hours
Protocol: The following assay was used to determine the efficacy of tetracycline compounds against common bacteria. Serial dilutions of compounds were prepared in microdilution plates using a Tecan robotic workstation. Mueller Hinton broth cultures of gram negative and gram positive strains were grown or adjusted to match the turbidity of a 0.5 McFarland standard. 1:200 dilutions were made in appropriate broth (cation supplemented Mueller Hinton broth or Haemophilus test medium) to allow a final inoculum of 1×10^5 cfu. Lysed horse blood was used to supplement broth for testing S. pneumoniae. The plates were incubated at 35° C. in ambient air for 18-24 hours, read spectrophotometrically, and checked manually for evidence of bacterial growth. Serial dilutions of compounds were also added to Brucella agar supplemented with laked sheep blood for P. acnes tests. A standard inoculum was transferred to the plate using a stainless steel replicator. After 48 hours of anaerobic incubation at 35° C. plates were examined. The MIC was defined as the lowest concentration of the tetracycline compound that inhibits growth. Table 3 gives the MIC (μg/mL) of selected substituted tetracycline compounds against a variety of gram positive and gram negative bacteria.

P. acnes (PBS 1073) = test: In vitro MIC assay, P. acnes (PBS 1073); type: cell-based; conditions: Cutibacterium acnes; Brucella agar with laked sheep blood, 48 hours anaerobic, 35° C.
P. acnes (ATCC 6919) = test: In vitro MIC assay, P. acnes (ATCC 6919); type: cell-based; conditions: Cutibacterium acnes, ATCC6919; Brucella agar with laked sheep blood, 48 hours anaerobic, 35° C.
P. granulosum (PBS 1098) = test: In vitro MIC assay, P. granulosum (PBS 1098); type: cell-based
P. granulosum (PBS 1048) = test: In vitro MIC assay, P. granulosum (PBS 1048); type: cell-based
P. acnes (PBS 994) = test: In vitro MIC assay, P. acnes (PBS 994); type: cell-based; conditions: Cutibacterium acnes; Brucella agar with laked sheep blood, 48 hours anaerobic, 35° C.
S. pneumoniae 157E = test: In vitro MIC assay, S. pneumoniae 157E; type: cell-based; conditions: Streptococcus pneumoniae, broth supplemented with lysed horse blood, 35° C., 18-24 hours
[4] = tested on: B. theraiotaomicron (ATCC 29741); test: In vitro MIC assay, B. theraiotaomicron (ATCC 29741); type: cell-based
P. acnes (PBS 1074) = test: In vitro MIC assay, P. acnes (PBS 1074); type: cell-based; conditions: Cutibacterium acnes; Brucella agar with laked sheep blood, 48 hours anaerobic, 35° C.
B. fragilis (ATCC 25285) = test: In vitro MIC assay, B. fragilis (ATCC 25285); type: cell-based; conditions: Bacteroides fragilis, ATCC25285
S. aureus MRSA5 = test: In vitro MIC assay, S. aureus MRSA5; type: cell-based; conditions: Staphylococcus aureus, broth microdilution, 35° C., 18-24 hours
S. aureus RN4250 = test: In vitro MIC assay, S. aureus RN4250; type: cell-based; conditions: Staphylococcus aureus, broth microdilution, 35° C., 18-24 hours
P. acnes (ATCC 1077) = test: In vitro MIC assay, P. acnes (ATCC 1077); type: cell-based; conditions: Cutibacterium acnes, ATCC1077; Brucella agar with laked sheep blood, 48 hours anaerobic, 35° C.
P. acnes (PBS 1080) = test: In vitro MIC assay, P. acnes (PBS 1080); type: cell-based; conditions: Cutibacterium acnes; Brucella agar with laked sheep blood, 48 hours anaerobic, 35° C.

Compound | phototoxicity at 150 μM, incubated in the dark [1] | MIC (E. coli (ATCC 25922)) [µg/mL] | MIC (S. aureus RN450) [µg/mL] | MIC (P. aeruginosa K1033) [µg/mL] | cytotoxicity at 75 μg/mL (COS-1 or CHO cell) | MIC [3] [µg/mL] | MIC (P. acnes (ATCC 11827)) [µg/mL] | MIC (E. coli MG 1655 DWAK) [µg/mL] | MIC (P. acnes (PBS 1073)) [µg/mL] | MIC (P. acnes (ATCC 6919)) [µg/mL] | MIC (S. pneumoniae 157E) [µg/mL] | MIC [4] [µg/mL] | MIC (P. acnes (PBS 1074)) [µg/mL] | MIC (B. fragilis (ATCC 25285)) [µg/mL] | MIC (S. aureus MRSA5) [µg/mL] | MIC (S. aureus RN4250) [µg/mL] | MIC (P. acnes (ATCC 1077)) [µg/mL] | other results
CN(C)c1cccc2c1CC1CC3[C@H](N(C)C)C(O)=C(C(N)=O)C(=O)[C@@]3(O)C(O)=C1C2=O (stereo partly drawn) [Compound A] | not to be appreciably phototoxic | 22 to 43 (≈ 49.8 to 97.4 µM) | 0 to 21 | 0 to 21 | minimal cytotoxicity | 22 to 43 (≈ 49.8 to 97.4 µM) | 0 to 8 | 0 to 21 | 9 to 27 (≈ 20.4 to 61.2 µM) | 0 to 8 | 0 to 21 | 9 to 27 (≈ 20.4 to 61.2 µM) | 9 to 27 (≈ 20.4 to 61.2 µM) | 0 to 8 | 44 to 64 (≈ 99.7 to 145 µM) | 0 to 21 | 9 to 27 (≈ 20.4 to 61.2 µM) | decrease in paw inflammation relative to the untreated control ([2]; 75 mg/kg IP): 60%; IC20 (E. coli translation): > 100 µM; IC50 (E. coli translation): > 100 µM; MIC (P. granulosum (PBS 1098)): 9 to 27 µg/mL (≈ 20.4 to 61.2 µM); MIC (P. granulosum (PBS 1048)): 9 to 27 µg/mL (≈ 20.4 to 61.2 µM); MIC (P. acnes (PBS 994)): 9 to 27 µg/mL (≈ 20.4 to 61.2 µM); MIC (P. acnes (PBS 1080)): 9 to 27 µg/mL (≈ 20.4 to 61.2 µM)
CC(=O)c1cccc2c1CC1CC3[C@@H](N(C)C)C(O)=C(C(N)=O)C(=O)[C@@]3(O)C(O)=C1C2=O (stereo partly drawn) [I] | not to be appreciably phototoxic | 22 to 43 (≈ 49.9 to 97.6 µM) | 0 to 21 | 0 to 21 | minimal cytotoxicity | 0 to 21 | 0 to 8 | 0 to 21 | 28 to 32 (≈ 63.6 to 72.7 µM) | 0 to 8 | 0 to 21 | 28 to 32 (≈ 63.6 to 72.7 µM) | 28 to 32 (≈ 63.6 to 72.7 µM) | 0 to 8 | 0 to 21 | 0 to 21 | 28 to 32 (≈ 63.6 to 72.7 µM) | phototoxicity at 30 μM, incubated in the UV light ([1]; UV light 1.6-1.8 mW/cm^2, 30 μM): minimally phototoxic
CC(=O)c1cccc2c1CC1CC3[C@H](N(C)C)C(O)=C(C(N)=O)C(=O)[C@@]3(O)C(O)=C1C2=O (stereo partly drawn) [J] | not to be appreciably phototoxic | 0 to 21 | 0 to 21 | 0 to 21 | minimal cytotoxicity | 0 to 21 | 0 to 8 | 0 to 21 | 28 to 32 (≈ 63.6 to 72.7 µM) | 0 to 8 | 0 to 21 | 28 to 32 (≈ 63.6 to 72.7 µM) | 28 to 32 (≈ 63.6 to 72.7 µM) | 0 to 8 | 0 to 21 | 0 to 21 | 28 to 32 (≈ 63.6 to 72.7 µM) | 
CN(C)c1ccc(O)c2c1C[C@H]1C[C@H]3[C@H](N(C)C)C(O)=C(C(N)=O)C(=O)[C@@]3(O)C(O)=C1C2=O [Minocycline, reference compound] |  |  |  |  |  |  |  |  |  |  |  |  |  |  |  |  |  | reduced inflammation relative to the untreated control ([2]; 50 mg/kg IP, positive control): 70%
